Assay results reported in the NIST ThermoML archive (doi:10.1016/j.jct.2009.11.011).
Where “and” joins values, the source holds several entries; their conditions need not be identical. Equal entries are not always repeated. Numbers after ± are expanded uncertainties.

Columns and labels:
[1] = Molar enthalpy of transition or fusion; conditions: Crystal; Adiabatic calorimetry
[2] = for vapor or sublimation pressure: Liquid, Ebulliometric method (Recirculating still)
[3] = molar heat capacity at saturation pressure

In the case of `c1cnc2c(c1)ccc1cccnc12` [1,10-phenanthroline], the “Molar enthalpy of transition or fusion” value [1] is reported as 3.705 ± 0.00406 kcal/mol, the “vapor or sublimation pressure” value ([2]; 523.28 K) is reported as 2 ± 0.01 kPa and 2.001 ± 0.01 kPa and the “vapor or sublimation pressure” value ([2]; 531.9 K) is reported as 2.668 ± 0.011 kPa. For the same compound, the “vapor or sublimation pressure” value ([2]; 554.04 K) was 5.325 ± 0.011 kPa, the “vapor or sublimation pressure” value ([2]; 568.22 K) was 8.008 ± 0.012 kPa and the “vapor or sublimation pressure” value ([2]; 578.69 K) was 10.65 ± 0.012 kPa. For the same compound, the “vapor or sublimation pressure” value ([2]; 587.24 K) was 13.33 ± 0.013 kPa, the “vapor or sublimation pressure” value ([2]; 595.98 K) was 16.64 ± 0.014 kPa and the “vapor or sublimation pressure” value ([2]; 603.36 K) was 19.95 ± 0.015 kPa. For the same compound, the Triple point temperature ([2]; Crystal, Adiabatic calorimetry) was 391.71 ± 0.05 K, the molar heat capacity ([3]; 5 K, Crystal, Vacuum adiabatic calorimetry) was 1.26 ± 0.02 J/K/mol and the molar heat capacity ([3]; 5.659 K, Crystal, Vacuum adiabatic calorimetry) was 1.78 ± 0.03 J/K/mol. The molar heat capacity ([3]; 6.394 K, Crystal, Vacuum adiabatic calorimetry) was 2.35 ± 0.03 J/K/mol, the molar heat capacity ([3]; 7.405 K, Crystal, Vacuum adiabatic calorimetry) was 3.18 ± 0.04 J/K/mol and the molar heat capacity ([3]; 8.419 K, Crystal, Vacuum adiabatic calorimetry) was 4.13 ± 0.05 J/K/mol. The molar heat capacity ([3]; 9.46 K, Crystal, Vacuum adiabatic calorimetry) was 5.19 ± 0.06 J/K/mol, the molar heat capacity ([3]; 10 K, Crystal, Vacuum adiabatic calorimetry) was 5.74 ± 0.06 J/K/mol and the molar heat capacity ([3]; 10.55 K, Crystal, Vacuum adiabatic calorimetry) was 6.31 ± 0.06 J/K/mol. It also gave a molar heat capacity ([3]; 11.75 K, Crystal, Vacuum adiabatic calorimetry) of 7.62 ± 0.07 J/K/mol, a molar heat capacity ([3]; 13.08 K, Crystal, Vacuum adiabatic calorimetry) of 9.121 ± 0.07 J/K/mol and a molar heat capacity ([3]; 14.53 K, Crystal, Vacuum adiabatic calorimetry) of 10.68 ± 0.083 J/K/mol. The molar heat capacity ([3]; 16.13 K, Crystal, Vacuum adiabatic calorimetry) was 12.55 ± 0.091 J/K/mol, the molar heat capacity ([3]; 17.88 K, Crystal, Vacuum adiabatic calorimetry) was 14.51 ± 0.1 J/K/mol and the molar heat capacity ([3]; 19.8 K, Crystal, Vacuum adiabatic calorimetry) was 16.6 ± 0.11 J/K/mol. The molar heat capacity ([3]; 20 K, Crystal, Vacuum adiabatic calorimetry) was 16.82 ± 0.11 J/K/mol, the molar heat capacity ([3]; 21.93 K, Crystal, Vacuum adiabatic calorimetry) was 18.87 ± 0.11 J/K/mol and the molar heat capacity ([3]; 24.3 K, Crystal, Vacuum adiabatic calorimetry) was 21.41 ± 0.11 J/K/mol. It also gave a molar heat capacity ([3]; 26.92 K, Crystal, Vacuum adiabatic calorimetry) of 24.1 ± 0.11 J/K/mol, a molar heat capacity ([3]; 29.85 K, Crystal, Vacuum adiabatic calorimetry) of 26.95 ± 0.11 J/K/mol and a molar heat capacity ([3]; 30 K, Crystal, Vacuum adiabatic calorimetry) of 27.1 ± 0.1 J/K/mol. It also gave a molar heat capacity ([3]; 33.1 K, Crystal, Vacuum adiabatic calorimetry) of 29.99 ± 0.1 J/K/mol, a molar heat capacity ([3]; 36.75 K, Crystal, Vacuum adiabatic calorimetry) of 33.23 ± 0.11 J/K/mol and a molar heat capacity ([3]; 40 K, Crystal, Vacuum adiabatic calorimetry) of 35.93 ± 0.12 J/K/mol. The molar heat capacity ([3]; 40.82 K, Crystal, Vacuum adiabatic calorimetry) was 36.58 ± 0.12 J/K/mol, the molar heat capacity ([3]; 45.34 K, Crystal, Vacuum adiabatic calorimetry) was 40.14 ± 0.12 J/K/mol and the molar heat capacity ([3]; 50 K, Crystal, Vacuum adiabatic calorimetry) was 43.64 ± 0.12 J/K/mol. The molar heat capacity ([3]; 50.36 K, Crystal, Vacuum adiabatic calorimetry) was 43.96 ± 0.12 J/K/mol, the molar heat capacity ([3]; 55.93 K, Crystal, Vacuum adiabatic calorimetry) was 47.63 ± 0.13 J/K/mol and the molar heat capacity ([3]; 57.69 K, Crystal, Vacuum adiabatic calorimetry) was 48.9 ± 0.14 J/K/mol. For the same compound, the molar heat capacity ([3]; 60 K, Crystal, Vacuum adiabatic calorimetry) was 50.34 ± 0.14 J/K/mol, the molar heat capacity ([3]; 60.42 K, Crystal, Vacuum adiabatic calorimetry) was 50.6 ± 0.14 J/K/mol and the molar heat capacity ([3]; 63.28 K, Crystal, Vacuum adiabatic calorimetry) was 52.36 ± 0.14 J/K/mol. It also gave a molar heat capacity ([3]; 66.47 K, Crystal, Vacuum adiabatic calorimetry) of 54.41 ± 0.15 J/K/mol, a molar heat capacity ([3]; 69.78 K, Crystal, Vacuum adiabatic calorimetry) of 56.39 ± 0.15 J/K/mol and a molar heat capacity ([3]; 70 K, Crystal, Vacuum adiabatic calorimetry) of 56.51 ± 0.15 J/K/mol. For the same compound, the molar heat capacity ([3]; 73.24 K, Crystal, Vacuum adiabatic calorimetry) was 58.45 ± 0.16 J/K/mol, the molar heat capacity ([3]; 76.94 K, Crystal, Vacuum adiabatic calorimetry) was 60.52 ± 0.16 J/K/mol and the molar heat capacity ([3]; 80 K, Crystal, Vacuum adiabatic calorimetry) was 62.29 ± 0.17 J/K/mol. The molar heat capacity ([3]; 80.6 K, Crystal, Vacuum adiabatic calorimetry) was 62.63 ± 0.17 J/K/mol, the molar heat capacity ([3]; 84.91 K, Crystal, Vacuum adiabatic calorimetry) was 65 ± 0.17 J/K/mol and the molar heat capacity ([3]; 88.8 K, Crystal, Vacuum adiabatic calorimetry) was 67.21 ± 0.17 J/K/mol. The molar heat capacity ([3]; 90 K, Crystal, Vacuum adiabatic calorimetry) was 67.87 ± 0.27 J/K/mol, the molar heat capacity ([3]; 97.84 K, Crystal, Vacuum adiabatic calorimetry) was 72.09 ± 0.27 J/K/mol and the molar heat capacity ([3]; 100 K, Crystal, Vacuum adiabatic calorimetry) was 73.23 ± 0.27 J/K/mol. It also gave a molar heat capacity ([3]; 100.26 K, Crystal, Vacuum adiabatic calorimetry) of 73.38 ± 0.27 J/K/mol, a molar heat capacity ([3]; 109.98 K, Crystal, Vacuum adiabatic calorimetry) of 78.65 ± 0.28 J/K/mol and a molar heat capacity ([3]; 119.96 K, Crystal, Vacuum adiabatic calorimetry) of 84.22 ± 0.28 J/K/mol. It also gave a molar heat capacity ([3]; 120 K, Crystal, Vacuum adiabatic calorimetry) of 84.24 ± 0.28 J/K/mol, a molar heat capacity ([3]; 131.01 K, Crystal, Vacuum adiabatic calorimetry) of 90.44 ± 0.29 J/K/mol and a molar heat capacity ([3]; 140 K, Crystal, Vacuum adiabatic calorimetry) of 95.58 ± 0.3 J/K/mol. The molar heat capacity ([3]; 143.07 K, Crystal, Vacuum adiabatic calorimetry) was 97.35 ± 0.3 J/K/mol, the molar heat capacity ([3]; 155.1 K, Crystal, Vacuum adiabatic calorimetry) was 104.48 ± 0.31 J/K/mol and the molar heat capacity ([3]; 160 K, Crystal, Vacuum adiabatic calorimetry) was 107.41 ± 0.31 J/K/mol. The molar heat capacity ([3]; 167.1 K, Crystal, Vacuum adiabatic calorimetry) was 111.7 ± 0.32 J/K/mol, the molar heat capacity ([3]; 179.08 K, Crystal, Vacuum adiabatic calorimetry) was 119.1 ± 0.32 J/K/mol and the molar heat capacity ([3]; 180 K, Crystal, Vacuum adiabatic calorimetry) was 119.68 ± 0.32 J/K/mol. The molar heat capacity ([3]; 191.08 K, Crystal, Vacuum adiabatic calorimetry) was 126.69 ± 0.32 J/K/mol, the molar heat capacity ([3]; 200 K, Crystal, Vacuum adiabatic calorimetry) was 132.42 ± 0.33 J/K/mol and the molar heat capacity ([3]; 203.14 K, Crystal, Vacuum adiabatic calorimetry) was 134.46 ± 0.33 J/K/mol. For the same compound, the molar heat capacity ([3]; 215.25 K, Crystal, Vacuum adiabatic calorimetry) was 142.45 ± 0.34 J/K/mol, the molar heat capacity ([3]; 220 K, Crystal, Vacuum adiabatic calorimetry) was 145.57 ± 0.35 J/K/mol and the molar heat capacity ([3]; 227.38 K, Crystal, Vacuum adiabatic calorimetry) was 150.47 ± 0.35 J/K/mol. The molar heat capacity ([3]; 239.55 K, Crystal, Vacuum adiabatic calorimetry) was 158.67 ± 0.36 J/K/mol, the molar heat capacity ([3]; 240 K, Crystal, Vacuum adiabatic calorimetry) was 158.97 ± 0.36 J/K/mol and the molar heat capacity ([3]; 251.77 K, Crystal, Vacuum adiabatic calorimetry) was 167.01 ± 0.37 J/K/mol. For the same compound, the molar heat capacity ([3]; 260 K, Crystal, Vacuum adiabatic calorimetry) was 172.69 ± 0.37 J/K/mol, the molar heat capacity ([3]; 264.02 K, Crystal, Vacuum adiabatic calorimetry) was 175.49 ± 0.37 J/K/mol and the molar heat capacity ([3]; 276.3 K, Crystal, Vacuum adiabatic calorimetry) was 183.86 ± 0.38 J/K/mol. For the same compound, the molar heat capacity ([3]; 280 K, Crystal, Vacuum adiabatic calorimetry) was 186.36 ± 0.39 J/K/mol, the molar heat capacity ([3]; 288.6 K, Crystal, Vacuum adiabatic calorimetry) was 192.35 ± 0.39 J/K/mol and the molar heat capacity ([3]; 289.46 K, Crystal, Vacuum adiabatic calorimetry) was 192.8 ± 0.39 J/K/mol. It also gave a molar heat capacity ([3]; 298.15 K, Crystal, Vacuum adiabatic calorimetry) of 198.74 ± 0.4 J/K/mol, a molar heat capacity ([3]; 300 K, Crystal, Vacuum adiabatic calorimetry) of 200 ± 0.4 J/K/mol and a molar heat capacity ([3]; 300.24 K, Crystal, Vacuum adiabatic calorimetry) of 200.19 ± 0.4 J/K/mol. The molar heat capacity ([3]; 312.29 K, Crystal, Vacuum adiabatic calorimetry) was 208.49 ± 0.41 J/K/mol, the molar heat capacity ([3]; 320 K, Crystal, Vacuum adiabatic calorimetry) was 213.76 ± 0.42 J/K/mol and the molar heat capacity ([3]; 324.53 K, Crystal, Vacuum adiabatic calorimetry) was 216.87 ± 0.42 J/K/mol. The molar heat capacity ([3]; 336.89 K, Crystal, Vacuum adiabatic calorimetry) was 225.26 ± 0.42 J/K/mol, the molar heat capacity ([3]; 336.98 K, Crystal, Vacuum adiabatic calorimetry) was 225.23 ± 0.42 J/K/mol and the molar heat capacity ([3]; 340 K, Crystal, Vacuum adiabatic calorimetry) was 227.24 ± 0.42 J/K/mol. For the same compound, the molar heat capacity ([3]; 348.97 K, Crystal, Vacuum adiabatic calorimetry) was 233.42 ± 0.43 J/K/mol, the molar heat capacity ([3]; 349.32 K, Crystal, Vacuum adiabatic calorimetry) was 233.65 ± 0.43 J/K/mol and the molar heat capacity ([3]; 360 K, Crystal, Vacuum adiabatic calorimetry) was 240.63 ± 0.44 J/K/mol. It also gave a molar heat capacity ([3]; 361.05 K, Crystal, Vacuum adiabatic calorimetry) of 241.49 ± 0.44 J/K/mol, a molar heat capacity ([3]; 373.19 K, Crystal, Vacuum adiabatic calorimetry) of 249.78 ± 0.45 J/K/mol and a molar heat capacity ([3]; 375.19 K, Liquid, Vacuum adiabatic calorimetry) of 297.88 ± 0.5 J/K/mol. For the same compound, the molar heat capacity ([3]; 380 K, Crystal, Vacuum adiabatic calorimetry) was 253.68 ± 0.46 J/K/mol, the molar heat capacity ([3]; 380 K, Liquid, Vacuum adiabatic calorimetry) was 300.22 ± 0.5 J/K/mol and the molar heat capacity ([3]; 381.3 K, Crystal, Vacuum adiabatic calorimetry) was 256.64 ± 0.46 J/K/mol. The molar heat capacity ([3]; 382.84 K, Liquid, Vacuum adiabatic calorimetry) was 301.57 ± 0.5 J/K/mol, the molar heat capacity ([3]; 383.75 K, Crystal, Vacuum adiabatic calorimetry) was 260.04 ± 0.46 J/K/mol and the molar heat capacity ([3]; 391.52 K, Liquid, Vacuum adiabatic calorimetry) was 305.71 ± 0.51 J/K/mol. It also gave a molar heat capacity ([3]; 391.71 K, Crystal, Vacuum adiabatic calorimetry) of 261.46 ± 0.47 J/K/mol, a molar heat capacity ([3]; 391.71 K, Liquid, Vacuum adiabatic calorimetry) of 305.81 ± 0.51 J/K/mol and a molar heat capacity ([3]; 397.93 K, Liquid, Vacuum adiabatic calorimetry) of 308.79 ± 0.51 J/K/mol. For the same compound, the molar heat capacity ([3]; 400 K, Liquid, Vacuum adiabatic calorimetry) was 309.76 ± 0.51 J/K/mol, the molar heat capacity ([3]; 400.3 K, Liquid, Vacuum adiabatic calorimetry) was 309.93 ± 0.51 J/K/mol and the molar heat capacity ([3]; 402.69 K, Liquid, Vacuum adiabatic calorimetry) was 311.03 ± 0.51 J/K/mol. It also gave a molar heat capacity ([3]; 404.9 K, Liquid, Vacuum adiabatic calorimetry) of 312.06 ± 0.52 J/K/mol, a molar heat capacity ([3]; 413.55 K, Liquid, Vacuum adiabatic calorimetry) of 316.13 ± 0.52 J/K/mol and a molar heat capacity ([3]; 416.42 K, Liquid, Vacuum adiabatic calorimetry) of 317.49 ± 0.52 J/K/mol. For the same compound, the molar heat capacity ([3]; 420 K, Liquid, Vacuum adiabatic calorimetry) was 319.14 ± 0.52 J/K/mol, the molar heat capacity ([3]; 429.03 K, Liquid, Vacuum adiabatic calorimetry) was 323.3 ± 0.52 J/K/mol and the molar heat capacity ([3]; 439.59 K, Liquid, Vacuum adiabatic calorimetry) was 328.19 ± 0.53 J/K/mol. The molar heat capacity ([3]; 440 K, Liquid, Vacuum adiabatic calorimetry) was 328.39 ± 0.53 J/K/mol, the molar heat capacity ([3]; 460 K, Liquid) was 337.52 ± 3.4 J/K/mol and the molar heat capacity ([3]; 480 K, Liquid) was 346.29 ± 3.5 J/K/mol. The molar heat capacity ([3]; 500 K, Liquid) was 355 ± 3.6 J/K/mol, the molar heat capacity ([3]; 520 K, Liquid) was 363.5 ± 3.7 J/K/mol and the molar heat capacity ([3]; 540 K, Liquid) was 371.9 ± 3.7 J/K/mol. For the same compound, the molar heat capacity ([3]; 560 K, Liquid) was 380.1 ± 3.8 J/K/mol, the molar heat capacity ([3]; 580 K, Liquid) was 388.2 ± 3.9 J/K/mol and the molar heat capacity ([3]; 600 K, Liquid) was 396 ± 4 J/K/mol.
